# US9427426B2 (priority 2008, dated 2016)
# Columns and labels:
# [1] = test system: rats intoxicated with mercury (mercury chloride); test: Example 1: erdosteine per os vs NAC per os in rats intoxicated with mercury; type: in vivo, Wistar rats; conditions: erdosteine 875 mg/kg or NAC 500 mg/kg per os once a day for 7 days
# Description: 3. […] NAC has been mixed with bidistilled water, the resulting solution being administered in volume of 10 ml/kg.
# 4. […] Erdosteine has been mixed with bidistilled water and sodium hydrogen carbonate equimolar, the resulting solution being administered in volume of 10 ml/kg.
# (§1) Mortality has been recorded. […] Few animals have been collected urine eliminated spontaneously for Pb—Hg analysis. Animals have been sacrificed under general anesthesia with ether. 6 animals of each group (3 males and 3 females) have been randomly selected for macroscopic and microscopic anatomic-pathological examination.
# [2] = test system: rats intoxicated with lead (lead acetate); test: Example 2: erdosteine i.v. vs NAC i.v. in rats intoxicated with lead; type: in vivo, Wistar rats; conditions: for Mortalitaty total / Mortality in percent: Pb intoxicated (lead acetate 4665 mg/kg per os), 35 animals/lot; for Anatomical pathology: lesions / Pb in urine, Pb mean values / Creatinine mean values / Haematocrit mean values / Haemoglobin mean values / Leucocytes mean values / Urea mean values / Uric acid mean value / erythrocytes mean values: Pb intoxicated; for Creatinine mean values / Haematocrit mean values / Haemoglobin mean values / Leucocytes mean values / Urea mean values / Uric acid mean value / erythrocytes mean values: survivors after 7 days
# Description: (§2) The animals have been randomly divided in 11 lots.
# (§3) 3. […] NAC has been dissolved in bidistilled water.
# (§4) 4. […] Erdosteine has been solubilized in bidistilled water and sodium hydrogen carbonate equimolar, the resulting solution being administered in volume of 10 ml/kg. Preliminarily we tested the different molar ratios erdosteine/sodium hydrogen carbonate in a range between 0.5:1 and 1.5:1 and the volume to be solubilized. […] Animals Monitoring:
# as §1
# [3] = test system: rats intoxicated with mercury (mercury chloride); test: Example 2: erdosteine i.v. vs NAC i.v. in rats intoxicated with mercury; type: in vivo, Wistar rats; conditions: for Mortalitaty total / Mortality in percent: Hg intoxicated (mercury chloride 42 mg/kg per os), 35 animals/lot; for Anatomical pathology: lesions / Hg in urine mean values / Creatinine mean values / Haematocrit mean values / Haemoglobin mean values / Leucocytes mean values / Urea mean values / Uric acid mean value / erythrocytes mean values: Hg intoxicated; for Creatinine mean values / Haematocrit mean values / Haemoglobin mean values / Leucocytes mean values / Urea mean values / Uric acid mean value / erythrocytes mean values: survivors after 7 days
# Description: as §2, §3, §4, §1
# [4] = Example 2: erdosteine toxicity i.v. (lot 11); type: in vivo, Wistar rats; conditions: both sexes, Wistar, in vivo, iv, 3500 mg/kg; rat, i.v.; read-out: LD50 of i.v. form of erdosteine
# Description: (§5) These lots have been evaluated only for mortality.
# rats [5] = test: Example 2: erdosteine toxicity i.v. (lot 11); type: in vivo, Wistar rats; conditions: erdosteine 3500 mg/kg i.v. slowly; 10 animals, not metal intoxicated
# Description: as §5
# rats [6] = test: Example 3: evaluation of erdosteine formulation toxicity i.v. (lots 10-13); type: in vivo, Wistar rats; conditions: 10 animals
# Description: Have been introduced 4 lot of 10 animals (5 males and 5 females) as follows: • Lot 10—intoxicated with 3500 mg/kg erdosteine i.v., 4.37 g erdosteine+1.48 g sodium hydrogen carbonate dissolved in 25 ml, administrated 2 ml/100 g of animal weight • Lot 11—intoxicated with 4000 mg/kg erdosteine i.v. as in lot 10, administrated 2.28 ml/100 g of animal weight • Lot 12—intoxicated with 4500 mg/kg erdosteine i.v. 4.5 g dissolved in 20 ml, administrated 2 ml/100 g of animal weight. Dissolution volume was choose in order to keep a similar injection volume. • Lot 13—intoxicated with 5500 mg/kg erdosteine i.v. as in lot 12, administrated 2.44 ml/100 g of animal weight Statistical Analysis
# It has been evaluated toxicity of formula 350 mg erdosteine+118 mg sodium hydrogen carbonate (formula that has shown the best stability data).
# rat = conditions: cited from earlier work
# [7] = Hg intoxicated (mercury chloride 42 mg/kg per os), 30 animals/lot
# [8] = survivors after 7 days, Hg intoxicated
# [9] = ERDO1 = erdosteine 350 mg/kg i.v. or NAC 114 mg/kg i.v. once a day for 7 days
# [10] = ERDO2 = erdosteine 175 mg/kg i.v. once a day for 7 days
# [11] = ERDO1 = erdosteine 350 mg/kg i.v. or NAC 114 mg/kg i.v. once a day
# [12] = ERDO2 = erdosteine 175 mg/kg i.v. once a day
# [13] = 3500 mg/kg erdosteine i.v. (lot 10)
# [14] = 4000 mg/kg erdosteine i.v. (lot 11)
# [15] = 4500 mg/kg erdosteine i.v. (lot 12), solution not perfectly clear
# [16] = 5500 mg/kg erdosteine i.v. (lot 13), solution not perfectly clear
compound,measurement,setting,value
"O=C(O)CSCC(=O)NC1CCSC1=O (stereo not drawn) [erdosteine, Erdosteine]",Mortality in percent,[1]; [7],16.6%
same,Mortality total,[1]; [7],5^1
same,Anatomical pathology: lesions (macroscopic and microscopic examination),[1]; Hg intoxicated,less important lesions
same,Hg in urine mean values,"[1]; Hg intoxicated, GS MS Varian 4100",14.7 mg/L
same,Creatinine mean values,[1]; [8],"0.47 ^1, 2 mK/dl"
same,Haematocrit mean values,[1]; [8],38.58^3
same,Haemoglobin mean values,[1]; [8],13.75^3 g/dl
same,Leucocytes mean values,[1]; [8],7.81^3
same,Urea mean values,[1]; [8],"49.18 ^1, 2 mg/dl"
same,Uric acid mean value,[1]; [8],2.40 ^1 mg/dl
same,erythrocytes mean values,[1]; [8],6.81^3 *10^6/mm^3
same,Mortalitaty total,[2]; [9],"5 ^1, 2"
same,Mortality in percent,[2]; [9],14.3%
same,Mortalitaty total,[2]; [10],"10 ^1, 2"
same,Mortality in percent,[2]; [10],28.6%
same,Anatomical pathology: lesions,[2]; [9],less important damages
same,"Pb in urine, Pb mean values",[2]; [9],15.9 mg/L
same,Anatomical pathology: lesions,[2]; [10],did not improve lesions
same,"Pb in urine, Pb mean values",[2]; [10],13 mg/L
same,Creatinine mean values,[2]; [11],"0.49 ^1, 2 mK/dl"
same,Haematocrit mean values,[2]; [11],37.21 ^3
same,Haemoglobin mean values,[2]; [11],15.71 ^3 g/dl
same,Leucocytes mean values,[2]; [11],11.36 ^3
same,Urea mean values,[2]; [11],"48.95 ^1, 2, 3 mg/dl"
same,Uric acid mean value,[2]; [11],2.28 ^4 mg/dl
same,erythrocytes mean values,[2]; [11],7.01 ^3 *10^6/mm^3
same,Creatinine mean values,[2]; [12],"0.46 ^1, 2 mK/dl"
same,Haematocrit mean values,[2]; [12],37.7 ^3
same,Haemoglobin mean values,[2]; [12],15.95 ^3 g/dl
same,Leucocytes mean values,[2]; [12],14.35 ^3
same,Urea mean values,[2]; [12],"54.4 ^1, 2 mg/dl"
same,Uric acid mean value,[2]; [12],"1.76 ^1, 2 mg/dl"
same,erythrocytes mean values,[2]; [12],7.07 ^3 *10^6/mm^3
same,Mortalitaty total,[3]; [9],"8 ^1, 2"
same,Mortality in percent,[3]; [9],22.6%
same,Mortality in percent,"[3]; ERDO1 = erdosteine 350 mg/kg i.v. or NAC 114 mg/kg i.v. once a day for 7 days, listed as ERDOI",22.6%
same,Mortalitaty total,[3]; [10],"12 ^1, 2"
same,Mortality in percent,[3]; [10],34.3%
same,Anatomical pathology: lesions,[3]; [9],least severe damages
same,Hg in urine mean values,[3]; [9],18.7 mg/L
same,Anatomical pathology: lesions,[3]; [10],less important lesions
same,Hg in urine mean values,[3]; [10],14.4 mg/L
same,Creatinine mean values,[3]; [11],0.60 ^2 mK/dl
same,Haematocrit mean values,[3]; [11],38.43 ^3
same,Haemoglobin mean values,[3]; [11],15.05 ^3 g/dl
same,Leucocytes mean values,[3]; [11],17.36 ^3
same,Urea mean values,[3]; [11],"50.36 ^1, 2 mg/dl"
same,Uric acid mean value,[3]; [11],2.25 ^4 mg/dl
same,erythrocytes mean values,[3]; [11],6.98 ^3 *10^6/mm^3
same,Creatinine mean values,[3]; [12],"0.51 ^1, 2 mK/dl"
same,Haematocrit mean values,[3]; [12],36.83 ^3
same,Haemoglobin mean values,[3]; [12],13.86 ^J g/dl
same,Leucocytes mean values,[3]; [12],8.61 ^3
same,Urea mean values,[3]; [12],"53.15 ^1, 2 mg/dl"
same,Uric acid mean value,[3]; [12],2.23 ^4 mg/dl
same,erythrocytes mean values,[3]; [12],6.55 ^3 *10^6/mm^3
same,LD50,[4],> 3500 mg/kg
same,Mortalitaty total,rats [5],1/10
same,Mortality in percent,rats [5],10%
same,Mortality %,rats [6]; [13],10%
same,Total mortality,rats [6]; [13],1/10
same,Mortality %,rats [6]; [14],40%
same,Total mortality,rats [6]; [14],4/10
same,Mortality %,rats [6]; [15],70%
same,Total mortality,rats [6]; [15],7/10
same,Mortality %,rats [6]; [16],100%
same,Total mortality,rats [6]; [16],10/10
same,LD50 per os,"rat; per os, rat where given",8750 mg/kg
same,LD50 i.v.,"rat; rat, i.v.",> 3500 mg/kg
